The NIST ThermoML archive (doi:10.1016/j.jct.2016.04.014)

Assay: xn = mol fraction of the nth substance listed
Conditions: Liquid, Vibrating tube method

CCCCCCCC [octane] + CCO
mass density [kg/m3]
Conditions | 100 kPa | 500 kPa | 5000 kPa | 10000 kPa | 15000 kPa | 20000 kPa | 25000 kPa | 30000 kPa | 35000 kPa | 40000 kPa
293.15 K, x1 = 0.2492 | 743.9 | 744.3 | 748.2 | 752.3 | 756.2 | 759.9 | 763.4 | 766.8 | 770 | 773.2
293.15 K, x1 = 0.4999 | 722.3 | 722.6 | 726.5 | 730.6 | 734.4 | 738.1 | 741.6 | 744.9 | 748.1 | 751.2
293.15 K, x1 = 0.7503 | 709.6 | 709.9 | 713.7 | 717.7 | 721.5 | 725.1 | 728.6 | 731.9 | 735 | 738.1
303.15 K, x1 = 0.2492 | 735.3 | 735.7 | 739.8 | 744.2 | 748.3 | 752.2 | 755.9 | 759.5 | 762.9 | 766.2
303.15 K, x1 = 0.4999 | 713.7 | 714.1 | 718.3 | 722.6 | 726.7 | 730.6 | 734.2 | 737.7 | 741.1 | 744.3
303.15 K, x1 = 0.7503 | 701.2 | 701.5 | 705.6 | 709.9 | 713.9 | 717.8 | 721.4 | 724.9 | 728.2 | 731.4
313.15 K, x1 = 0.2492 | 726.5 | 726.9 | 731.3 | 736 | 740.4 | 744.5 | 748.4 | 752.1 | 755.7 | 759.1
313.15 K, x1 = 0.4999 | 705 | 705.4 | 709.8 | 714.5 | 718.8 | 722.9 | 726.8 | 730.5 | 734 | 737.4
313.15 K, x1 = 0.7503 | 692.6 | 693 | 697.4 | 702 | 706.3 | 710.3 | 714.1 | 717.8 | 721.2 | 724.6
323.15 K, x1 = 0.2492 | 717.4 | 717.9 | 722.6 | 727.6 | 732.2 | 736.6 | 740.7 | 744.6 | 748.4 | 752
323.15 K, x1 = 0.4999 | 696 | 696.4 | 701.2 | 706.1 | 710.8 | 715.1 | 719.2 | 723.1 | 726.8 | 730.4
323.15 K, x1 = 0.7503 | 683.8 | 684.2 | 688.9 | 693.8 | 698.4 | 702.7 | 706.8 | 710.6 | 714.2 | 717.8
333.15 K, x1 = 0.2492 | 708.2 | 708.6 | 713.7 | 719.1 | 724 | 728.6 | 733 | 737.1 | 741 | 744.8
333.15 K, x1 = 0.4999 | 686.8 | 687.3 | 692.4 | 697.7 | 702.7 | 707.3 | 711.6 | 715.7 | 719.6 | 723.4
333.15 K, x1 = 0.7503 | 674.8 | 675.3 | 680.4 | 685.6 | 690.5 | 695.1 | 699.3 | 703.4 | 707.2 | 710.9
353.15 K, x1 = 0.2492 | – | 689 | 695 | 701.1 | 706.8 | 712 | 716.9 | 721.5 | 725.8 | 730
353.15 K, x1 = 0.4999 | – | 667.9 | 674 | 680.2 | 685.8 | 691.1 | 695.9 | 700.5 | 704.8 | 709
353.15 K, x1 = 0.7503 | – | 656.6 | 662.6 | 668.7 | 674.3 | 679.5 | 684.3 | 688.7 | 693 | 697.1
373.15 K, x1 = 0.2492 | – | 667.6 | 674.8 | 682 | 688.6 | 694.6 | 700.1 | 705.2 | 710 | 714.6
373.15 K, x1 = 0.4999 | – | 647.2 | 654.4 | 661.7 | 668.3 | 674.3 | 679.8 | 684.9 | 689.7 | 694.3
373.15 K, x1 = 0.7503 | – | 637 | 644.1 | 651.2 | 657.7 | 663.6 | 669 | 674 | 678.7 | 683.2
